From PubChem BioAssay (NCI)
Where “and” joins values, the source holds several entries; their conditions need not be identical. Identical values can stand only once.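 Briefly, cells in 96-well plates were exposed to five compound concentrations for 48 h, and endpoints were estimated by linear interpolation. GI50 marks 50% less growth. TGI: total growth inhibition.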

Experiments:
Assay in all cases: NCI tumour cell line growth inhibition, 48 h
[1] = system: MDA-N
[2] = system: DMS 114 small cell lung
[3] = system: RXF-631 renal
[4] = system: M19-MEL melanoma
[5] = system: DLD-1 colon
[6] = system: HOP-18 NSCLC
[7] = system: DMS 273 small cell lung
[8] = system: SNB-78 CNS
[9] = system: XF 498 CNS
[10] = system: P388/ADR leukemia
[11] = system: P388 leukemia

COc1cccc(-c2cc(=O)c3cc(N4CCOCC4)ccc3[nH]2)c1 was tested, and the TGI [1] was 0.0278 µM.

With CC(C)(C)C(=O)Nc1cccc2oc(-c3ccccc3)cc12 the TGI [2] was over 100 µM, the TGI [3] was over 100 µM and the TGI [4] was over 100 µM. The TGI [5] was over 100 µM, the TGI [6] was over 100 µM and the TGI [7] was over 100 µM. It also gave a TGI [8] of over 100 µM.

Work on COc1c(/C=C/C=O)cc2c(c1OC)OCO2 yielded a TGI [1] of 94 µM.

Work on O=C(O)c1ccc(C(O)(c2ccccc2)c2ccccc2)cc1 yielded a TGI [1] of over 100 µM.

In the case of CN(C)CCC(CCN(C)C)=NO, the TGI [2] is reported as over 100 µM, the TGI [3] is reported as over 100 µM and the TGI [4] is reported as over 100 µM. It also gave a TGI [5] of over 100 µM, a TGI [6] of over 100 µM and a TGI [7] of over 100 µM. It also gave a TGI [8] of over 100 µM.

With COc1cc(/C=C2\CCC/C(=C\c3ccc(O)c(OC)c3)C2=O)ccc1O the TGI [2] was 4.48 µM, the TGI [4] was 3.9 µM and the TGI [9] was 16.8 µM. For the same compound, the TGI [5] was 3.38 µM, the TGI [6] was 9.21 µM and the TGI [7] was 3.07 µM. It also gave a TGI [8] of 8.03 µM and a TGI [1] of 12.5 µM.

Work on CCCCCCn1c(SC)nc(COC(=O)NC)c1COC(=O)NC yielded a TGI [1] of 36.1 µM.

Work on CC1=C(C)C(=O)O[C@@H]([C@](C)(O)[C@]2(O)CC[C@@]3(O)[C@@H]4C[C@H](O)[C@]5(O)[C@@H](O)C=CC(=O)[C@]5(C)[C@H]4CC[C@]23C)C1 yielded a TGI [1] of over 100 µM.

With COc1ccc2c3c1OC1C(OC)(OC)C=C[C@@]4(Br)[C@@H](C2)N(CC2CC2)CC[C@]314 (stereo not given in full) the TGI [1] was over 100 µM.

CCOc1ccc(/C=C/c2cc(OC)c(OC)c(OC)c2)cc1 showed a TGI [2] of 5.15 µM, a TGI [3] of over 38 µM and a TGI [4] of over 100 µM. The TGI [9] was over 100 µM, the TGI [5] was over 100 µM and the TGI [6] was over 100 µM. It also gave a TGI [8] of 0.85 µM.

In the case of CC(C)(C)c1cc(CCCCCCCC2(CCCCCCCc3cc(C(C)(C)C)cc(C(C)(C)C)c3)OC(COCCOCCCCCC#N)C(COCCOCCCCCC#N)O2)cc(C(C)(C)C)c1 (stereo not given), the TGI [2] is reported as over 100 µM, the TGI [4] is reported as over 100 µM and the TGI [5] is reported as over 100 µM. For the same compound, the TGI [6] was over 100 µM, the TGI [7] was over 100 µM and the TGI [8] was over 100 µM.

NS(=O)(=O)c1ccc(NC(=O)Cc2nc3ccccc3s2)cc1 showed a TGI [2] of 29.2 µM, a TGI [3] of 30.3 µM and a TGI [4] of 28.1 µM. The TGI [9] was 29.8 µM, the TGI [5] was 29.5 µM and the TGI [6] was 34.8 µM. The TGI [7] was 33.1 µM and the TGI [8] was 41.6 µM.

Compound CCCCNS(=O)(=O)c1n[nH]c(=O)[nH]c1=O has a TGI [1] of over 100 µM.

With O=C(OCCCl)C1OC(n2cc(F)c(=O)[nH]c2=O)CC1O (stereo not given) the TGI [2] was over 100 µM, the TGI [4] was over 100 µM and the TGI [9] was over 100 µM. It also gave a TGI [5] of over 100 µM, a TGI [6] of over 100 µM and a TGI [8] of over 100 µM.

For CC1=NN(C(=O)Nc2ccc(Cl)cc2)C(=O)C2CCC(=O)N12 (stereo not given), the TGI [2] was over 100 µM, the TGI [4] was over 100 µM and the TGI [9] was over 100 µM. It also gave a TGI [5] of over 100 µM, a TGI [7] of over 100 µM and a TGI [8] of over 100 µM.

Compound Cc1[nH]c2ccccc2c1CC/C(=N\Nc1ccccc1)c1ccccc1 has a TGI [3] of over 100 µM, a TGI [9] of over 100 µM and a TGI [5] of over 100 µM. It also gave a TGI [7] of over 100 µM and a TGI [8] of over 100 µM.

With C[C@@H](NS(=O)(=O)c1ccc(NC(=O)c2ccccc2)cc1)C(=O)O the TGI [4] was over 100 µM, the TGI [9] was over 100 µM and the TGI [5] was over 100 µM. For the same compound, the TGI [6] was over 100 µM and the TGI [7] was over 100 µM.

O=C1C(=C([O-])c2ccccc2)C(=O)c2ccccc21.O=C1C(=C([O-])c2ccccc2)C(=O)c2ccccc21.[Mn+2] was tested, and the GI50 [4] was over 100 µM, the TGI [4] was over 100 µM and the GI50 [5] was 62 µM. It also gave a TGI [5] of over 100 µM, a GI50 [6] of 35.4 µM and a TGI [6] of over 100 µM. The GI50 [7] was 30.5 µM and the TGI [7] was over 100 µM.

Cc1ccc(NC(=O)CC/C(CC(=O)C(C)(C)C)=N\NC(=O)C[n+]2ccccc2)cc1C gave a TGI [2] of over 100 µM, a TGI [4] of over 100 µM and a TGI [9] of over 100 µM. The TGI [6] was over 100 µM, the TGI [7] was over 100 µM and the TGI [8] was over 100 µM.

C/C(=N\OCC(O)CNCCSCc1ccccc1)c1ccccc1Cl (stereo not given) gave a TGI [1] of 37.4 µM.

With Cn1c(=O)nc2n(-c3ccc(Cl)cc3)c3cc(Cl)ccc3nc-2c1=O the TGI [2] was 3.8 µM, the TGI [3] was 4.22 µM and the TGI [4] was 3.53 µM. For the same compound, the TGI [9] was 2.73 µM, the TGI [5] was 3.9 µM and the TGI [6] was 28.3 µM. It also gave a TGI [7] of 12.5 µM, a TGI [8] of over 57.4 µM and a TGI [1] of 3.09 µM.

CCOC(=O)C(CCC(N)=O)(CCC(=O)OC)C(=O)OCC gave a TGI [2] of over 100 µM, a TGI [4] of over 100 µM and a TGI [9] of over 100 µM. The TGI [5] was over 100 µM, the TGI [6] was over 100 µM and the TGI [7] was over 100 µM. The TGI [8] was over 100 µM.

Compound OCC[N+]12CCCN1CCC2 has a TGI [2] of over 100 µM, a TGI [4] of over 100 µM and a TGI [5] of over 100 µM. For the same compound, the TGI [6] was over 100 µM, the TGI [7] was over 100 µM and the TGI [8] was over 100 µM.

Compound O=C(NCCCl)Nc1cccnc1 has a TGI [1] of 67.9 µM.

With Cn1c2c(c3ccccc31)CCN(CCCCN1CCN(c3ccccc3)CC1)C2=O the TGI [2] was over 79.1 µM, the TGI [3] was over 100 µM and the TGI [4] was over 86.7 µM. For the same compound, the TGI [9] was over 70.1 µM, the TGI [5] was over 100 µM and the TGI [6] was over 31.6 µM. It also gave a TGI [7] of over 100 µM, a TGI [8] of over 100 µM and a TGI [1] of 89.9 µM.

Cc1ccc(/C=C(\NC(=O)c2ccccc2)c2nc3ccccc3[nH]2)cc1 was tested, and the TGI [2] was over 100 µM, the TGI [4] was over 100 µM and the TGI [5] was over 100 µM. It also gave a TGI [6] of over 100 µM.

In the case of CSc1nc2nn(Cc3ccccc3)cc2c(=O)[nH]1, the TGI [2] is reported as over 100 µM, the TGI [4] is reported as over 100 µM and the TGI [5] is reported as over 100 µM. The TGI [6] was over 100 µM, the TGI [7] was over 100 µM and the TGI [8] was over 100 µM.

For CCC1C(C(=O)Nc2ccccc2C)=C(C)NC(C)=C1c1ccccc1C (stereo not given), the TGI [4] was over 100 µM, the TGI [9] was over 100 µM and the TGI [5] was over 59.7 µM. It also gave a TGI [6] of over 100 µM, a TGI [7] of over 83.2 µM and a TGI [8] of over 100 µM.

Compound CCn1c2ccccc2c(=O)c2c(OC)ccc(OC)c21 has a TGI [3] of over 100 µM, a TGI [4] of over 100 µM and a TGI [9] of over 100 µM. For the same compound, the TGI [7] was over 100 µM.

For O=C(N/C(=C\c1cccc([N+](=O)[O-])c1)c1nc2ccccc2[nH]1)c1ccccc1, the TGI [2] was over 100 µM, the TGI [4] was over 100 µM and the TGI [9] was 87.5 µM. For the same compound, the TGI [5] was over 100 µM, the TGI [7] was over 100 µM and the TGI [8] was over 100 µM.

Work on C=CC(=O)NC(N)=NC#N yielded a TGI [2] of 250 µM, a TGI [4] of 278 µM and a GI50 [9] of 157 µM. It also gave a TGI [9] of 313 µM, a TGI [5] of 311 µM and a TGI [6] of 283 µM. The TGI [8] was 399 µM, the TGI [10] was over 58 µM and the TGI [11] was over 43.5 µM.

Compound CCN(CC)CC(C)C(=O)/C=C/c1ccc(C)cc1 (stereo not given) has a TGI [2] of 3.2 µM, a TGI [4] of 3.04 µM and a TGI [9] of 2.98 µM. For the same compound, the TGI [5] was 3.16 µM, the TGI [6] was 22.3 µM and the TGI [7] was 5.96 µM. It also gave a TGI [8] of 23.1 µM.

Work on O=C(CCc1ccccc1)NS(=O)(=O)c1ccccc1 yielded a TGI [2] of over 100 µM, a TGI [3] of over 100 µM and a TGI [4] of over 100 µM. The TGI [9] was over 100 µM, the TGI [5] was over 100 µM and the TGI [6] was over 100 µM.

Oc1ccc2ccccc2c1N=Nc1cc(Cl)ccc1Cl showed a TGI [1] of over 50 µM.

Work on c1ccncc1 yielded a TGI [5] of over 100 µM and a TGI [7] of over 100 µM.

In the case of O=[N+]([O-])c1ccc(C(Cl)C(Cl)c2ccc(C(Cl)C(Cl)c3ccc([N+](=O)[O-])cc3[N+](=O)[O-])cc2)c([N+](=O)[O-])c1 (stereo not given), the TGI [2] is reported as 3.59 µM, the GI50 [3] is reported as 0.336 µM and the TGI [3] is reported as 8.92 µM and 1.26 µM. For the same compound, the GI50 [4] was 0.256 µM, the TGI [4] was 3.15 µM and 0.749 µM and the TGI [9] was 0.389 µM. For the same compound, the GI50 [5] was 0.251 µM, the TGI [5] was 6.02 µM and 0.748 µM and the TGI [7] was 6.71 µM. The GI50 [8] was 0.762 µM and the TGI [8] was > 62 µM and 52.8 µM.

N#CCC(=O)N/N=C1/C(=O)N(c2cc(Cl)ccc2Cl)C(=O)C(=O)C1c1nc2ccccc2s1 (stereo not given) showed a TGI [2] of over 100 µM, a TGI [3] of over 100 µM and a TGI [4] of over 100 µM. It also gave a TGI [5] of over 100 µM, a TGI [6] of over 100 µM and a TGI [7] of over 100 µM. The TGI [8] was over 100 µM.

Work on NC1CCCCC1N.O=C1C=C/C(=C(/c2ccc(O)c(Br)c2)c2ccccc2S(=O)(=O)[O-])C=C1Br.O=C1C=C/C(=C(/c2ccc(O)c(Br)c2)c2ccccc2S(=O)(=O)[O-])C=C1Br.[Pt+4] yielded a GI50 [4] of 0.539 µM, a TGI [4] of 32.2 µM and a GI50 [9] of 0.112 µM. It also gave a TGI [9] of 0.927 µM, a GI50 [5] of 5.27 µM and a TGI [5] of over 100 µM. The GI50 [6] was 7.95 µM, the TGI [6] was over 100 µM and the GI50 [7] was 0.813 µM. For the same compound, the TGI [7] was 29.2 µM, the GI50 [8] was 48.2 µM and the TGI [8] was over 100 µM.
